In patent US6740637B1, “Chlorophyll and bacteriochlorophyll derivatives, their preparation and pharmaceutical compositions comprising them” (priority 1998, dated 2004):
Entries after “also recorded” stand apart in the source; their conditions may differ.

Key:
[1] = tested on: Herpes simplex virus-1 (in infected Vero cells); assay: PDT of HSV-1 in infected Vero cells, plaque assay; assay type: cell-based, Herpes simplex virus type 1
Description: Vero cells (Kidney African Green Monkey cells) were grown in DMEM+F12 medium buffered with 25 mM HEPES supplemented with 10% foetal bovine serum (FBS).Herpes simplex virus type 1 (HSV-1) was isolated from the eye of a patient with dentritic keratitis and maintained in culture.
For viral infection Vero cells (2×10^4/well) were cultured at 37° C. for 2 days in 24 well microplates. The culture medium was replaced with fresh medium containing 2% FBS and the cells infected with HSV-1 (200 μl) at multiplicity of infection (MOI) of 1-3. The cells were further incubated at 37° C. for 3 days. The medium was collected and centrifuged for 5 min in a clinical centrifuge to remove cells and cell debris. The concentration of viral particle was determined as described below and the suspension was aliquoted and kept at −80° C. until used.
Vero cells were inoculated with 10 fold dilutions of HSV-1 and cultured for 2 h at 37° C. The medium was then replaced with fresh DMEM containing 2% FBS and 0.7% methylcellulose and the cells were further incubated for 3 days. The overlayer was then decanted and the cells fixed and stained with crystal violet. Virus induced plaques were manually counted and plaque forming units (PFU/ml) were calculated.
Vero cells were infected with HSV-1 and incubated for four hours. Cells were then further incubated in dark for 1 h without or with Chl-Ser at the indicated concentrations. Cells were then washed three times with medium and immediately illuminated for 10 min. Subsequently the cells were incubated for 3 days for viral multiplication and media collected for quantitation. The appropriate controls described above were included in each experiment.

M2R melanoma cells = assay: PDT effect by clonogenic assay; assay type: cell-based, mouse
Description: The PDT effect was also determined by the clonogenic assay: 24 h after treatment of cells with various Chla-L-Ser-OMe concentrations and completion of the irradiation step, as described above (FIG. 12A), cultures were trypsinized and viable cell numbers determined by trypan blue exclusion. Appropriate dilutions were carried out and 250 cells/well were seeded into 6-well Costar plates. After 11-12 days in culture, the medium was aspirated and the colonies were fixed and stained with crystal violet in methanol and the number of colonies (more than 40 cells per colony) was counted under a dissecting microscope. […] Results are given as means±SD of triplicate determinations.

M2R mouse melanoma cells = assay: Photodynamic toxicity to melanoma cell monolayer: morphology and Propidium Iodide staining; assay type: cell-based; conditions: 4×10^−6M pigment, 10 min irradiation at 670 nm (light source A), examined 3 h later
Description: The photodynamic effect of Chlidea and Chla-L-Ser-OMe conjugate on melanoma cells in culture was tested as follows: M2R mouse melanoma cells as monolayers (to 100% confluence) were treated with the pigments Chla, Chlidea and Chla-L-Ser-OMe for 30 minutes. Subsequently the cultures were irradiated for 10 minutes from the top with a 5mW GaAs diode laser at 670 nm (light source A), a 150W Xenon lamp at 5000 μEinstein/cm^2 (light source B), or a 90W halogen lamp at 1500 μEinstein (light source C). The control groups included untreated cells, pigment- treated cells that were kept in the dark and irradiated untreated cells. Three hours after irradiation, the changes in cell morphology due to irradiation were examined by phase contrast microscopy.
Evaluation of the cytolytic activity of the various Chl and Bchl derivatives was carried out by assessing cell death in the photodynamically treated area of the monolayer by staining of the cells with, and monitoring the red fluorescence of, Propidium Iodide ([2,7-diamino-9-phenyl-10-(diethylamino-propyl)-phenathridinium iodide meth-iodide]) (PID) which is excluded from intact/live cells and selectively accumulates in nuclei of damaged cells. Examination of fluorescing nuclei in the stained culture was done by fluorescence microscopy (Yeh, 1981). […]

C57Bl mice = assay: Toxicity of serine conjugates in mice in the absence of irradiation; assay type: in vivo, mouse; conditions: injections of up to 40 mg/kg body weight, up to 14 days, no irradiation
Description: (d) Toxicity of the Chl and Bchl-serine conjugates Chla-L-Ser-OMe and Bchla-L-Ser-OMe in C57Bl mice under normal housing conditions in the absence of irradiation was estimated by injection of the compound dissolved in 10% ethanol/PBS. Control mice were injected with the vehicle only. […] This dose of drug was thus far the highest used and LD50 vs. EC50 of treatment (margins of therapeutic index) have yet to be determined.

M2R cells = assay type: cell-based, mouse
Description: Alternatively, photodynamic toxicity was determined by [^3H] thymidine incorporation. In this case, changes in rates of [^3H] thymidine incorporation following PDT were performed as follows: Cell cultures (4-5×10^4 cells/well in about 40-50% confluency grown in 10% fetal bovine serum) were pulsed with 1μ Ci/ml thymidine [methyl-^3H] for 2 h at 37° C. Cultures were then washed twice with cold phosphate-buffered saline (PBS), treated with 7.5% ice cold trichloroacetic acid (TCA) for 30 min at 4° C., washed 2 times with ethanol. Cells were then dissolved in 0.3 ml of 1 M NaOH at 37° C. for 15 min. Samples of 100 μl were neutralized with 100 μl of 1N HCI and 4 ml of 0.1 M imidazole and counted in a 20:8 (vol/vol) xylene scintillator/Lumax mixture. […] Results are given as means±SD of triplicate determinations.

Which results are given for `C=Cc1c(C)c2cc3nc(c4c5[n-]c(cc6nc(cc1[n-]2)C(C)=C6CC)c(C)c5C(=O)[C@@H]4C(=O)OC)[C@@H](CCC(=O)OC[C@H](N)C(=O)OC)[C@@H]3C.[Mg+2]` [Chla-L-Ser-OMe, L-seryl Methyl Ester Chlorophyllidea]?
concentration of maximal toxicity [1]: ~500 nM; EC50 ([1]; 1 h with Chl-Ser, illuminated 10 min, read-out: half maximal effect on viral survival): ~150 nM; effect in the dark ([1]; same concentrations range, dark): no effect in the dark; number of surviving cells (colonies) without irradiation (M2R melanoma cells; dark): not in the dark; number of surviving cells (colonies) after PDT (M2R melanoma cells; irradiated, colonies counted after 11-12 days): reduced the number of surviving cells in a dose dependent manner; cell damage: morphology and PID labeling after irradiation (M2R mouse melanoma cells): cell damage was confined to the photodynamically treated area; also recorded: all the remaining damaged cells in area (A) became PID labeled; effect on behavior and well being of mice (C57Bl mice): no noticeable effect on the behavior and well being of the mice; [3H] thymidine incorporation without irradiation (M2R cells): not observed in the dark controls; [3H] thymidine incorporation after PDT (M2R cells; 60 min with increasing concentrations, light source B, 24 h later): dose dependent reduction in the ability of the cells to incorporate [^3H] thymidine
